Values quoted from earlier work in patent US12594266B2, “Triterpenoid antifungals for the treatment or prevention of Pneumocystis spp. pneumonia” (priority 2019, dated 2026).
Where two headings read alike, the source gives them in different places. *1 amine or outer side, *2 acyl side, *3 side chain or, on linkers, in order; H or OH if unused. Where a SMILES comes first, the peptide text is derived from it. Bridges are numbered along the chain shown (N, C = ends). [ ]: non-standard residue; d: D form. The star is where a group is joined. hTyr(3S-OH,4S-OH,3'-OSO3H) = N[C@H](C(=O)O)[C@H](O)[C@@H](O)c1ccc(O)c(OS(=O)(=O)O)c1; Orn(4R-OH,5R-OH) = O=C([C@H](C[C@@H](O)[C@@H](O)N[*:3])N[*:1])[*:2]; Pro(3S-OH,4S-Me) = C[C@H]1CN[C@H](C(=O)O)[C@H]1O; X1 = CCCCCOc1ccc(-c2cc(-c3ccc(C(=O)*)cc3)no2)cc1; Gln(3R-OH) = NC(=O)C[C@@H](O)[C@H](N)C(=O)O; Hyp = O=C(O)[C@@H]1C[C@@H](O)CN1

Experiments:
[1] = system: Pneumocystis spp.; settings: cited from earlier work; for relative effectiveness among echinocandins: murine PCP
[2] = total radioactivity, 15 mg/kg oral, male pigmented Long-Evans rats, cited from earlier work

Compound: CCCCCOc1ccc(-c2cc(-c3ccc(C(=O)N[C@H]4C[C@@H](O)[C@@H](O)NC(=O)[C@@H]5[C@@H](O)[C@@H](C)CN5C(=O)[C@H]([C@H](O)CC(N)=O)NC(=O)[C@H]([C@H](O)[C@@H](O)c5ccc(O)c(OS(=O)(=O)O)c5)NC(=O)[C@@H]5C[C@@H](O)CN5C(=O)[C@H]([C@@H](C)O)NC4=O)cc3)no2)cc1 [micafungin] (X1-[Orn(4R-OH,5R-OH)]T[Hyp][hTyr(3S-OH,4S-OH,3'-OSO3H)][Gln(3R-OH)][Pro(3S-OH,4S-Me)]; lactam 1-C)
- trophic burden versus untreated control mice ([1]; any dose, intraperitoneal, 3 weeks): no significant reduction
- relative effectiveness among echinocandins [1]: least effective

Compound: CC(C)[C@@H](C)[C@@]1(C)CC[C@]2(C)[C@H]3CC[C@@H]4[C@@]5(COC[C@]4(C)[C@@H](OC[C@](C)(N)C(C)(C)C)[C@H](n4ncnc4-c4ccncc4)C5)C3=CC[C@@]2(C)[C@@H]1C(=O)O [[^14C]-SCY-078]
- AUCall ([2]; Adrenal gland): 321.126 μg equiv*h/g
- Tissue:Blood AUC Ratio ([2]; Adrenal gland): 48.431
- AUCall ([2]; Blood (cardiac)): 6.631 μg equiv*h/g
- Tissue:Blood AUC Ratio ([2]; Blood (cardiac)): 1.000
- AUCall ([2]; Bone marrow (femur)): 238.388 μg equiv*h/g
- Tissue:Blood AUC Ratio ([2]; Bone marrow (femur)): 35.953
- AUCall ([2]; Bone): 9.022 μg equiv*h/g
- Tissue:Blood AUC Ratio ([2]; Bone): 1.361
- AUCall ([2]; Brain (cerebrum)): 0.727 μg equiv*h/g
- Tissue:Blood AUC Ratio ([2]; Brain (cerebrum)): 0.110
- AUCall ([2]; Cecum): 83.542 μg equiv*h/g
- Tissue:Blood AUC Ratio ([2]; Cecum): 12.600
- AUCall ([2]; Epididymis): 75.355 μg equiv*h/g
- Tissue:Blood AUC Ratio ([2]; Epididymis): 11.365
- AUCall ([2]; Esophagus): 41.430 μg equiv*h/g
- Tissue:Blood AUC Ratio ([2]; Esophagus): 6.248
- AUCall ([2]; Exorbital gland): 523.676 μg equiv*h/g
- Tissue:Blood AUC Ratio ([2]; Exorbital gland): 78.980
- AUCall ([2]; Eye (lens)): 0.084 μg equiv*h/g
- Tissue:Blood AUC Ratio ([2]; Eye (lens)): 0.013
- AUCall ([2]; Eye (uvea)): 777.035 μg equiv*h/g
- Tissue:Blood AUC Ratio ([2]; Eye (uvea)): 117.191
- AUCall ([2]; Heart (myocardium)): 66.558 μg equiv*h/g
- Tissue:Blood AUC Ratio ([2]; Heart (myocardium)): 10.038
- AUCall ([2]; Kidney (cortex)): 165.880 μg equiv*h/g
- Tissue:Blood AUC Ratio ([2]; Kidney (cortex)): 25.018
- AUCall ([2]; Kidney (medulla)): 136.610 μg equiv*h/g
- Tissue:Blood AUC Ratio ([2]; Kidney (medulla)): 20.603
- AUCall ([2]; Large intestine): 57.682 μg equiv*h/g
- Tissue:Blood AUC Ratio ([2]; Large intestine): 8.727
- AUCall ([2]; Liver): 374.517 μg equiv*h/g
- Tissue:Blood AUC Ratio ([2]; Liver): 56.484
- AUCall ([2]; Lung): 175.593 μg equiv*h/g
- Tissue:Blood AUC Ratio ([2]; Lung): 26.483
- AUCall ([2]; Lymph node): 251.036 μg equiv*h/g
- Tissue:Blood AUC Ratio ([2]; Lymph node): 37.861
- AUCall ([2]; Oral mucosa): 36.782 μg equiv*h/g
- Tissue:Blood AUC Ratio ([2]; Oral mucosa): 5.547
- AUCall ([2]; Pancreas): 110.455 μg equiv*h/g
- Tissue:Blood AUC Ratio ([2]; Pancreas): 16.659
- AUCall ([2]; Pituitary): 640-809 μg equiv*h/g
- Tissue:Blood AUC Ratio ([2]; Pituitary): 96.645
- AUCall ([2]; Prostate gland): 61.301 μg equiv*h/g
- Tissue:Blood AUC Ratio ([2]; Prostate gland): 9.245
- AUCall ([2]; Salivary gland): 149.193 μg equiv*h/g
- Tissue:Blood AUC Ratio ([2]; Salivary gland): 22.501
- AUCall ([2]; Seminal vesicle): 26.827 μg equiv*h/g
- Tissue:Blood AUC Ratio ([2]; Seminal vesicle): 4.046
- AUCall ([2]; Skeletal muscle): 28.304 μg equiv*h/g
- Tissue:Blood AUC Ratio ([2]; Skeletal muscle): 4.269
- AUCall ([2]; Skin (non-pigmented)): 74.884 μg equiv*h/g
- Tissue:Blood AUC Ratio ([2]; Skin (non-pigmented)): 11.294
- AUCall ([2]; Skin (pigmented)): 110.249 μg equiv*h/g
- Tissue:Blood AUC Ratio ([2]; Skin (pigmented)): 16.627
- AUCall ([2]; Small intestine): 141.607 μg equiv*h/g
- Tissue:Blood AUC Ratio ([2]; Small intestine): 21.357
- AUCall ([2]; Spleen): 507.638 μg equiv*h/g
- Tissue:Blood AUC Ratio ([2]; Spleen): 75.561
- AUCall ([2]; Stomach (gastric mucosa)): 181.074 μg equiv*h/g
- Tissue:Blood AUC Ratio ([2]; Stomach (gastric mucosa)): 27.309
- AUCall ([2]; Testis): 64.972 μg equiv*h/g
- Tissue:Blood AUC Ratio ([2]; Testis): 9.799
- AUCall ([2]; Thymus): 195.608 μg equiv*h/g
- Tissue:Blood AUC Ratio ([2]; Thymus): 29.501
- AUCall ([2]; Thyroid): 291.187 μg equiv*h/g
- Tissue:Blood AUC Ratio ([2]; Thyroid): 43.916
- AUCall ([2]; Urinary bladder): 45.955 μg equiv*h/g
- Tissue:Blood AUC Ratio ([2]; Urinary bladder): 6.931

Compound: CC[C@H](C)C[C@H](C)CCCCCCCCC(=O)N[C@H]1C[C@@H](O)[C@@H](NCCN)NC(=O)[C@@H]2[C@@H](O)CCN2C(=O)[C@H]([C@H](O)CCN)NC(=O)[C@H]([C@H](O)[C@@H](O)c2ccc(O)cc2)NC(=O)[C@@H]2C[C@@H](O)CN2C(=O)[C@H]([C@@H](C)O)NC1=O [caspofungin]
- relative effectiveness among echinocandins [1]: most effective
